Reference: the NIST ThermoML archive (doi:10.1016/j.jct.2005.10.006)
Numbers after ± are expanded uncertainties.

Assay: xn = mol fraction of the nth substance listed
Conditions: Fluid (supercritical or subcritical phases), Spherical resonator

N#N [nitrogen] + C
Conditions	speed of sound [m/s]
300 K, 17969 kPa, x1 = 0.2	476.54 ± 0.78
300 K, 18326 kPa, x1 = 0.1	491.78 ± 0.8
300 K, 19736 kPa, x1 = 0.2	492.16 ± 0.8
300 K, 19924 kPa, x1 = 0.1	507.75 ± 0.83
300 K, 24934 kPa, x1 = 0.1	563.32 ± 0.92
300 K, 30250 kPa, x1 = 0.1	625.49 ± 1
350 K, 202.3 kPa, x1 = 0.1	466.26 ± 0.76
350 K, 248.7 kPa, x1 = 0.2	452.58 ± 0.74
350 K, 498.6 kPa, x1 = 0.2	452.54 ± 0.74
350 K, 502 kPa, x1 = 0.1	466.1 ± 0.76
350 K, 552.3 kPa, x1 = 0.5422	415.67 ± 0.68
350 K, 814.8 kPa, x1 = 0.5422	415.97 ± 0.68
350 K, 1001 kPa, x1 = 0.1	465.83 ± 0.76
350 K, 1374 kPa, x1 = 0.5422	416.67 ± 0.68
350 K, 1999 kPa, x1 = 0.2	452.66 ± 0.74
350 K, 2001 kPa, x1 = 0.1	465.52 ± 0.76
350 K, 2717 kPa, x1 = 0.5422	418.62 ± 0.69
350 K, 3007 kPa, x1 = 0.1	465.52 ± 0.76
350 K, 4009 kPa, x1 = 0.2	453.86 ± 0.74
350 K, 4012 kPa, x1 = 0.1	465.86 ± 0.76
350 K, 5419 kPa, x1 = 0.5422	423.85 ± 0.7
350 K, 6023 kPa, x1 = 0.1	467.64 ± 0.76
350 K, 6042 kPa, x1 = 0.2	456.41 ± 0.75
350 K, 8048 kPa, x1 = 0.1	471.02 ± 0.77
350 K, 8070 kPa, x1 = 0.5422	430.68 ± 0.71
350 K, 8140 kPa, x1 = 0.2	460.55 ± 0.75
350 K, 9931 kPa, x1 = 0.2	465.36 ± 0.76
350 K, 10069 kPa, x1 = 0.1	476.07 ± 0.78
350 K, 10144 kPa, x1 = 0.2	466.02 ± 0.76
350 K, 12122 kPa, x1 = 0.1	482.98 ± 0.79
350 K, 12140 kPa, x1 = 0.2	472.93 ± 0.77
350 K, 13507 kPa, x1 = 0.5422	449.48 ± 0.74
350 K, 14143 kPa, x1 = 0.1	491.53 ± 0.8
350 K, 14157 kPa, x1 = 0.2	481.39 ± 0.79
350 K, 16162 kPa, x1 = 0.2	491.18 ± 0.8
350 K, 16179 kPa, x1 = 0.1	501.83 ± 0.82
350 K, 17867 kPa, x1 = 0.2	500.53 ± 0.81
350 K, 18210 kPa, x1 = 0.1	513.66 ± 0.83
350 K, 19448 kPa, x1 = 0.2	509.95 ± 0.83
350 K, 19809 kPa, x1 = 0.1	523.96 ± 0.85
400 K, 199.4 kPa, x1 = 0.1	494.39 ± 0.8
400 K, 231.4 kPa, x1 = 0.2	480.07 ± 0.78
400 K, 497.1 kPa, x1 = 0.1	494.48 ± 0.8
400 K, 501.8 kPa, x1 = 0.2	480.26 ± 0.78
400 K, 622 kPa, x1 = 0.5422	442.06 ± 0.72
400 K, 918.4 kPa, x1 = 0.5422	442.56 ± 0.72
400 K, 995.6 kPa, x1 = 0.1	494.7 ± 0.81
400 K, 1551 kPa, x1 = 0.5422	443.69 ± 0.73
400 K, 1990 kPa, x1 = 0.1	495.31 ± 0.81
400 K, 2005 kPa, x1 = 0.2	481.61 ± 0.78
400 K, 2989 kPa, x1 = 0.1	496.16 ± 0.81
400 K, 3075 kPa, x1 = 0.5422	446.66 ± 0.73
400 K, 3994 kPa, x1 = 0.1	497.25 ± 0.81
400 K, 4015 kPa, x1 = 0.2	484.18 ± 0.79
400 K, 6011 kPa, x1 = 0.1	500.22 ± 0.81
400 K, 6027 kPa, x1 = 0.2	487.68 ± 0.79
400 K, 6170 kPa, x1 = 0.5422	453.88 ± 0.74
400 K, 8012 kPa, x1 = 0.1	504.2 ± 0.82
400 K, 8046 kPa, x1 = 0.2	492.14 ± 0.8
400 K, 9240 kPa, x1 = 0.5422	462.55 ± 0.76
400 K, 10023 kPa, x1 = 0.1	509.28 ± 0.83
400 K, 10077 kPa, x1 = 0.2	497.61 ± 0.81
400 K, 12004 kPa, x1 = 0.2	503.66 ± 0.82
400 K, 12054 kPa, x1 = 0.1	515.5 ± 0.84
400 K, 14084 kPa, x1 = 0.1	522.78 ± 0.85
400 K, 14562 kPa, x1 = 0.2	513.02 ± 0.83
400 K, 15633 kPa, x1 = 0.5422	484.69 ± 0.79
400 K, 16027 kPa, x1 = 0.2	519 ± 0.84
400 K, 16081 kPa, x1 = 0.1	530.96 ± 0.86
400 K, 16082 kPa, x1 = 0.1	530.96 ± 0.86
400 K, 18039 kPa, x1 = 0.2	527.93 ± 0.86
400 K, 18052 kPa, x1 = 0.1	539.93 ± 0.88
400 K, 19788 kPa, x1 = 0.1	548.54 ± 0.89
400 K, 20114 kPa, x1 = 0.2	537.94 ± 0.87
